Measured values: ChEMBL document CHEMBL1201862, “PubChem BioAssay data set” (2004)
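48-hour exposure; five concentrations; linearly interpolated endpoints. At the GI50, growth is halved.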 Activity calls are given as the source filed them. Rule as the data show it: active = GI50 up to about 1.1 µM and inactive = higher.

Assays:
Experiment in all cases: NCI-60 cell line screen, 48 h
[1] = system: A549
[2] = system: M14
[3] = system: NCI-H226
[4] = system: SF-268
[5] = system: A498
[6] = system: SF-539
[7] = system: IGROV-1
[8] = system: SW-620
[9] = system: SN12C
[10] = system: HOP-62
[11] = system: TK-10
[12] = system: SK-MEL-5
[13] = system: CCRF-CEM
[14] = system: NCI-H460
[15] = system: HT-29
[16] = system: COLO 205
[17] = system: MOLT-4
[18] = system: OVCAR-3

CN(C)C(=S)/N=c1\ssc(=S)n1-c1ccccc1
GI50 [1]: 25.3 µM (inactive) | GI50 [2]: 15 µM (inactive) | GI50 [3]: 10.1 µM (inactive) | GI50 [4]: 16.9 µM (inactive) | GI50 [5]: 21.3 µM (inactive) | GI50 [6]: 16.8 µM (inactive) | GI50 [7]: 17 µM (inactive) | GI50 [8]: 10.7 µM (inactive) | GI50 [9]: 15.3 µM (inactive) | GI50 [10]: 34.2 µM (inactive) | GI50 [11]: 16.9 µM (inactive) | GI50 [12]: 32.7 µM (inactive) | GI50 [13]: 0.36 µM (active) | GI50 [14]: 16.1 µM (inactive) | GI50 [15]: 18.9 µM (inactive)

Cc1[nH]c2ccccc2c1C1=NO/C(=N\O)C(c2c(C)[nH]c3ccccc23)C1 (stereo not drawn)
GI50 [1]: 38.6 µM (inactive) | GI50 [2]: 26.6 µM (inactive) | GI50 [16]: 19.7 µM (inactive) | GI50 [3]: 37.7 µM (inactive) | GI50 [4]: 46 µM (inactive) | GI50 [5]: 42.8 µM (inactive) | GI50 [6]: 23.6 µM (inactive) | GI50 [7]: 34.8 µM (inactive) | GI50 [17]: 21.4 µM (inactive) | GI50 [8]: 57.5 µM (inactive) | GI50 [9]: 37 µM (inactive) | GI50 [18]: 26.9 µM (inactive) | GI50 [10]: 21.7 µM (inactive) | GI50 [11]: 54 µM (inactive) | GI50 [12]: 19.9 µM (inactive) | GI50 [13]: 31.4 µM (inactive) | GI50 [14]: 23.9 µM (inactive) | GI50 [15]: 22.7 µM (inactive)

Cc1cccc(C)c1NC(=O)CCc1n[nH]c(=S)o1
GI50 [1]: 88.5 µM (inactive) | GI50 [2]: > 100 µM (inactive) | GI50 [16]: 30.8 µM (inactive) | GI50 [3]: > 100 µM (inactive) | GI50 [4]: > 100 µM (inactive) | GI50 [5]: > 100 µM (inactive) | GI50 [6]: > 100 µM (inactive) | GI50 [7]: > 100 µM (inactive) | GI50 [17]: > 100 µM (inactive) | GI50 [8]: 18.1 µM (inactive) | GI50 [9]: > 100 µM (inactive) | GI50 [18]: > 100 µM (inactive) | GI50 [10]: > 100 µM (inactive) | GI50 [11]: > 100 µM (inactive) | GI50 [12]: > 100 µM (inactive) | GI50 [13]: > 100 µM (inactive) | GI50 [14]: > 100 µM (inactive) | GI50 [15]: > 100 µM (inactive)

O=C(O)C1(c2ccccc2)CCCNCC1 (stereo not drawn)
GI50 [1]: > 100 µM (inactive) | GI50 [2]: > 100 µM (inactive) | GI50 [16]: > 100 µM (inactive) | GI50 [3]: > 100 µM (inactive) | GI50 [4]: > 100 µM (inactive) | GI50 [5]: > 100 µM (inactive) | GI50 [7]: > 100 µM (inactive) | GI50 [17]: > 100 µM (inactive) | GI50 [8]: > 100 µM (inactive) | GI50 [9]: > 100 µM (inactive) | GI50 [18]: > 100 µM (inactive) | GI50 [10]: > 100 µM (inactive) | GI50 [11]: > 100 µM (inactive) | GI50 [12]: > 100 µM (inactive) | GI50 [13]: > 100 µM (inactive) | GI50 [14]: > 100 µM (inactive) | GI50 [15]: > 100 µM (inactive)

COc1ccc(C(=O)C(C(=O)C(=O)Nc2ccc(Cl)c(Cl)c2)c2ccc(OC)cc2)cc1 (stereo not drawn)
GI50 [1]: > 100 µM (inactive) | GI50 [2]: > 100 µM (inactive) | GI50 [3]: > 100 µM (inactive) | GI50 [4]: > 100 µM (inactive) | GI50 [5]: > 100 µM (inactive) | GI50 [6]: > 100 µM (inactive) | GI50 [7]: > 100 µM (inactive) | GI50 [17]: > 100 µM (inactive) | GI50 [8]: > 100 µM (inactive) | GI50 [9]: > 100 µM (inactive) | GI50 [18]: > 100 µM (inactive) | GI50 [10]: > 100 µM (inactive) | GI50 [11]: > 100 µM (inactive) | GI50 [12]: > 100 µM (inactive) | GI50 [14]: > 100 µM (inactive) | GI50 [15]: > 100 µM (inactive)

COc1cc(C2(C)SCCCS2)c(I)c(OC)c1OC
GI50 [1]: > 100 µM (inactive) | GI50 [2]: > 100 µM (inactive) | GI50 [16]: > 100 µM (inactive) | GI50 [3]: > 100 µM (inactive) | GI50 [4]: > 100 µM (inactive) | GI50 [5]: > 100 µM (inactive) | GI50 [6]: > 100 µM (inactive) | GI50 [7]: > 100 µM (inactive) | GI50 [17]: > 100 µM (inactive) | GI50 [8]: > 100 µM (inactive) | GI50 [9]: > 100 µM (inactive) | GI50 [18]: > 100 µM (inactive) | GI50 [10]: > 100 µM (inactive) | GI50 [11]: > 100 µM (inactive) | GI50 [12]: > 100 µM (inactive) | GI50 [13]: > 100 µM (inactive) | GI50 [14]: > 100 µM (inactive) | GI50 [15]: > 100 µM (inactive)

OCn1nc2c(C3OCCO3)cc3ccccc3n2c1=S
GI50 [1]: > 100 µM (inactive) | GI50 [2]: > 100 µM (inactive) | GI50 [16]: > 100 µM (inactive) | GI50 [3]: > 100 µM (inactive) | GI50 [4]: > 100 µM (inactive) | GI50 [5]: > 100 µM (inactive) | GI50 [6]: > 100 µM (inactive) | GI50 [7]: > 100 µM (inactive) | GI50 [17]: > 100 µM (inactive) | GI50 [8]: > 100 µM (inactive) | GI50 [9]: > 100 µM (inactive) | GI50 [18]: > 100 µM (inactive) | GI50 [10]: > 100 µM (inactive) | GI50 [11]: > 100 µM (inactive) | GI50 [12]: > 100 µM (inactive) | GI50 [13]: > 100 µM (inactive) | GI50 [14]: > 100 µM (inactive) | GI50 [15]: > 100 µM (inactive)

CNC(=O)c1cccc2c(Nc3ccc(NS(C)(=O)=O)cc3OC)c3cccc(C)c3nc12
GI50 [1]: 0.0151 µM (active) | GI50 [2]: 0.102 µM (active) | GI50 [16]: 0.542 µM (active) | GI50 [3]: 0.0546 µM (active) | GI50 [4]: 0.114 µM (active) | GI50 [5]: 0.0841 µM (active) | GI50 [6]: 0.0628 µM (active) | GI50 [7]: 1.31 µM (inactive) | GI50 [17]: 0.0113 µM (active) | GI50 [8]: 0.169 µM (active) | GI50 [9]: 0.0326 µM (active) | GI50 [18]: 1.39 µM (inactive) | GI50 [10]: 0.0244 µM (active) | GI50 [11]: 1.24 µM (inactive) | GI50 [12]: 0.131 µM (active) | GI50 [13]: 0.0133 µM (active) | GI50 [14]: < 0.01 µM (active) | GI50 [15]: 0.478 µM (active)
